The results in this text go back to ChEMBL document CHEMBL4828724 (Eur J Med Chem, 2021).

A word on the half-life: it is the time in which the quantity being followed falls by half. In general, IC50 refers to the concentration needed to halve the response being measured. What is called CL/F is clearance divided by bioavailability, as obtained after extravascular dosing. Usually AUC(0-inf) stands for the area under the concentration-time curve extrapolated to infinity. As usually defined, the Tmax is the time from dosing to the highest level. Broadly, the Cmax is the maximum level reached in the sampled fluid or tissue. As a reminder, the inhibition in vivo is the change of the read-out against control, counted positive when it falls. As a reminder, the inhibition is the relative decrease from the control value, in per cent. One may read the Kp as the ratio of the level in a tissue or fluid to that in plasma or blood.

Series [1] can be described thus: Half life in Sprague-Dawley rat at 10 umol/kg, ig administered as single dose measured for 12 hrs by LC-MS/MS analysis. Type of series: ADME. To be noted: in vivo, po, dose 10 µmol/kg.
The target in series [2] is Cytochrome P450 2D6 (Homo sapiens, UniProt P10635). In words: Inhibition of CYP2D6 (unknown origin). The format is ADME.
Sequence of Cytochrome P450 2D6 (P10635 whole entry): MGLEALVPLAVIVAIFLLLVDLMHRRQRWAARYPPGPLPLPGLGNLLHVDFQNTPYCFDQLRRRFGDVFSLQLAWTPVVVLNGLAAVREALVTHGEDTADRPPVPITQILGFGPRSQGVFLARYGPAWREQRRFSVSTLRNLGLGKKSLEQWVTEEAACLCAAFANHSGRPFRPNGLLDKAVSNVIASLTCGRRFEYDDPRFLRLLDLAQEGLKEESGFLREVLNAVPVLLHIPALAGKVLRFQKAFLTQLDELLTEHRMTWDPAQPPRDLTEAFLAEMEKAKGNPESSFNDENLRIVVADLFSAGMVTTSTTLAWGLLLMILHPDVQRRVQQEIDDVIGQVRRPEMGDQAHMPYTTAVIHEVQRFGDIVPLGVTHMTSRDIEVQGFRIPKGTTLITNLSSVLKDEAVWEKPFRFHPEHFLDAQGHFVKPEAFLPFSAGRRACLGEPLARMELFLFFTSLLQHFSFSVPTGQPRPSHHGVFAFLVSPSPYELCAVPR
For series [3], the target named is Cytochrome P450 3A4 (Homo sapiens, UniProt P08684). The series is described as follows: Inhibition of CYP3A4 (unknown origin). The format is ADME.
Sequence of Cytochrome P450 3A4 (P08684 whole entry): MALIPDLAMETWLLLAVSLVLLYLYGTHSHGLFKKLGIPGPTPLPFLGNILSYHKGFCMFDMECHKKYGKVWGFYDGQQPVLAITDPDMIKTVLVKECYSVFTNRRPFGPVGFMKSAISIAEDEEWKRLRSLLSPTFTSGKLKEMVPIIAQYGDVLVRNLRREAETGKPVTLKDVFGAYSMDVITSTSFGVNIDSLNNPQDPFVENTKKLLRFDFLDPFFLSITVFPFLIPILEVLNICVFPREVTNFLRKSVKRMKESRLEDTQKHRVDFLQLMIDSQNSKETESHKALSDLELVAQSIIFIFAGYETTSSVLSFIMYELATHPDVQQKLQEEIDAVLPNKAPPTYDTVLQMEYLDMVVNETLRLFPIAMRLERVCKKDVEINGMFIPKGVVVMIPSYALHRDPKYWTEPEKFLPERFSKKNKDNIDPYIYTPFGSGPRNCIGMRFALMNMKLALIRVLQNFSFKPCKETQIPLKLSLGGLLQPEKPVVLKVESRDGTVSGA
For series [4], the target named is Cytochrome P450 2C9 (Homo sapiens, UniProt P11712). The series is described as follows: Inhibition of CYP2C9 (unknown origin). The format is ADME.
Sequence of Cytochrome P450 2C9 (P11712 whole entry): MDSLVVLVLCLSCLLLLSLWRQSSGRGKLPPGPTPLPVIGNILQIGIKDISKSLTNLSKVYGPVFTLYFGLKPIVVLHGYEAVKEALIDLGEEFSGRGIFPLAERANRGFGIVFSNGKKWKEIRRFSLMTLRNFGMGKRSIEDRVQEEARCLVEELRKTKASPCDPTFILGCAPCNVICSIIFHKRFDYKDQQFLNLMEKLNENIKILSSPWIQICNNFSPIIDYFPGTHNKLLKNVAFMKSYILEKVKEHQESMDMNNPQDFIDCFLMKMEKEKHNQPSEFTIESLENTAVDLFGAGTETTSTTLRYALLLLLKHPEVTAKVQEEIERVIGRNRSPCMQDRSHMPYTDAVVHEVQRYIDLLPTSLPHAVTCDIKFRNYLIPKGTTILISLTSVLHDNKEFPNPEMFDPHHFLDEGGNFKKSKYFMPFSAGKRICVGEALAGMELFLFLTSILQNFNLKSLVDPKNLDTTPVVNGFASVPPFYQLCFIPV
Series [5] is described as follows: Drug uptake in Sprague-Dawley rat brain at 5 umol/kg, ig measured after 2 hrs by LC-MS/MS analysis. The format is ADME, tissue-based. To be noted: in vivo, po, dose 5 µmol/kg.
Series [6] can be described thus: Clearance in Sprague-Dawley rat at 10 umol/kg, ig administered as single dose measured for 12 hrs by LC-MS/MS analysis. Type of series: ADME. To be noted: in vivo, po, dose 10 µmol/kg.
Series [7] in a line: AUC (0 to infinity) in Sprague-Dawley rat at 10 umol/kg, ig administered as single dose by LC-MS/MS analysis. The format is ADME. More on the design: time infinity, route […], dose 10 µmol/kg. To be noted: in vivo, po.
The target of series [8] is T1, Cytochrome P450 2B6 (Homo sapiens, UniProt P20813).
T1 sequence (P20813 whole entry): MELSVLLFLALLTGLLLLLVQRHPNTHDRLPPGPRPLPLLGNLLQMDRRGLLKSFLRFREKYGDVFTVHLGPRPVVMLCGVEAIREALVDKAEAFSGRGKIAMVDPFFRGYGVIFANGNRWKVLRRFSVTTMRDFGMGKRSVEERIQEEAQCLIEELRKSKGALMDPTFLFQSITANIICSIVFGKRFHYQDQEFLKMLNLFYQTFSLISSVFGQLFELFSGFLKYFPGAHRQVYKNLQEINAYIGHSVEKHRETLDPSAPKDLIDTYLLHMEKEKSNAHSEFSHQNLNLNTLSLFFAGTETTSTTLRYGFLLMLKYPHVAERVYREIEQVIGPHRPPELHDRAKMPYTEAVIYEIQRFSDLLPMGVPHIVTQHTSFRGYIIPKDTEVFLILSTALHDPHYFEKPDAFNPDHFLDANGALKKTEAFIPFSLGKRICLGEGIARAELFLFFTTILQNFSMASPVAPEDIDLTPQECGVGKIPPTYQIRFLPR
The series is described as follows: Inhibition of CYP2B6 (unknown origin). The format is ADME.

Series [9] can be described thus: Tmax in Sprague-Dawley rat at 10 umol/kg, ig administered as single dose measured for 12 hrs by LC-MS/MS analysis. Type of series: ADME. To be noted: in vivo, po, dose 10 µmol/kg.
Series [10] is described as follows: Cmax in Sprague-Dawley rat at 10 umol/kg, ig administered as single dose measured for 12 hrs by LC-MS/MS analysis. To be noted: in vivo, po. More on the design: route […], time 12 hrs, dose 10 µmol/kg. The format is ADME.
Series [11] concerns Rattus norvegicus. The series is described as follows: Reduction in spontaneous locomotor activity in Sprague-Dawley rat at 15 umol/kg, po measured for 3 hrs. Type of series: functional.
Series [12] is described as follows: Metabolic stability in monkey liver microsomes assessed as intrinsic clearance at 1 uM in the presence of NADPH measured for 60 mins by LC-MS/MS analysis. To be noted: rhesus monkey, read-out: CLH. Type of series: ADME, Macaca mulatta, Microsome. In general terms: Microsomes from liver hold many membrane-bound enzymes, among them those of drug oxidation.
Series [13] is described as follows: Apparent volume of distribution during terminal phase in Sprague-Dawley rat at 10 umol/kg, ig administered as single dose measured after 12 hrs by LC-MS/MS analysis. Type of series: ADME. To be noted: in vivo, po, dose 10 µmol/kg, read-out: Vz/F.
Series [14] addresses Synaptic vesicular amine transporter (Rattus norvegicus) (UniProt Q01827). In words: Inhibition of [3H]DA uptake at VMAT2 in rat striatal synaptosome at 1 uM incubated for 10 mins followed by [3H]DA addition and measured after 20 mins by TopCount scintillation counting method relative to control. To be noted: Striatum, time 30.0 min. The format is subcellular.
The target in series [15] is Voltage-gated inwardly rectifying potassium channel KCNH2 (Homo sapiens, UniProt Q12809). The series is described as follows: Inhibition of human ERG.
Sequence of Voltage-gated inwardly rectifying potassium channel KCNH2 (Q12809 whole entry): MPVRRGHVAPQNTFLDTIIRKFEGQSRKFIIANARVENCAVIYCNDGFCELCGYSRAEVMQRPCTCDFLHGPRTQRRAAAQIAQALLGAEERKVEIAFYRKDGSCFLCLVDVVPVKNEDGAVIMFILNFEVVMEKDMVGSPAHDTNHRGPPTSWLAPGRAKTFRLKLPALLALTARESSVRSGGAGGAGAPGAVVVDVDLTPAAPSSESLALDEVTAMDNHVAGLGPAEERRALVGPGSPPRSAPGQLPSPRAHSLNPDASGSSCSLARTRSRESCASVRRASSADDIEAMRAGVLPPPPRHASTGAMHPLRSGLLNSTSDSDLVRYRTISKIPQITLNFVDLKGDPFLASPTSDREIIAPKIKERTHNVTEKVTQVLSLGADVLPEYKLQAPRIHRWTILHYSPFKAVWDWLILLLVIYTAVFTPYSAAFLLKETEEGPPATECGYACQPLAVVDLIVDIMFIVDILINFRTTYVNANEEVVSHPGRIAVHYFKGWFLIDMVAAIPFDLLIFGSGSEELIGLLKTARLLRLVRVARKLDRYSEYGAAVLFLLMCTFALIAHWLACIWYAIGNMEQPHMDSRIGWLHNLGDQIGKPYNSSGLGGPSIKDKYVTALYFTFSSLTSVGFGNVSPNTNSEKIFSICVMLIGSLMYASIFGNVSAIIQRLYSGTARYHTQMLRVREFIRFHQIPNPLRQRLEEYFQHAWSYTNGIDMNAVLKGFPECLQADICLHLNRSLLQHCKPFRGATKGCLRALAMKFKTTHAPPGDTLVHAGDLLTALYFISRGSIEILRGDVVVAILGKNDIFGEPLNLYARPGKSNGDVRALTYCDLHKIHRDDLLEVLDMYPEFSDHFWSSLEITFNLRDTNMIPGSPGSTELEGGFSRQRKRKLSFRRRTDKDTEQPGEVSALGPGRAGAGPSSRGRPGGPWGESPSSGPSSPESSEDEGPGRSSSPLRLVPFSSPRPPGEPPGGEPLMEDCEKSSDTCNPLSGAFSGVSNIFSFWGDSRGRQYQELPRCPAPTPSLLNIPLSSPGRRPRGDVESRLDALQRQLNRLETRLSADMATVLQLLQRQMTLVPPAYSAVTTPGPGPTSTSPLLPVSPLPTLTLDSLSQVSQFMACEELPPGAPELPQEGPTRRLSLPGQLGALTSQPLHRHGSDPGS
The test system of series [16] is Rattus norvegicus. The series is described as follows: Reduction in spontaneous locomotor activity in Sprague-Dawley rat at 3 umol/kg, po measured for 3 hrs. Type of series: functional.
The nature of series [17]: Metabolic stability in human liver microsomes assessed as intrinsic clearance at 1 uM in the presence of NADPH measured for 60 mins by LC-MS/MS analysis. To be noted: read-out: CLH. Type of series: ADME, Microsome.
Series [18] can be described thus: Metabolic stability in mouse liver microsomes assessed as intrinsic clearance at 1 uM in the presence of NADPH measured for 60 mins by LC-MS/MS analysis. To be noted: read-out: CLH. Type of series: ADME, Microsome.
Series [19] in a line: Metabolic stability in monkey liver microsomes assessed as parent compound remaining at 1 uM in the presence of NADPH measured after 60 mins by LC-MS/MS analysis. Type of series: ADME, Macaca mulatta, Microsome. To be noted: rhesus monkey, liver microsomes, read-out: Stability.
Series [20] deals with Synaptic vesicular amine transporter (Rattus norvegicus) (UniProt Q01827). In words: Inhibition of [3H]DA uptake at VMAT2 in rat striatal synaptosome at 0.1 uM incubated for 10 mins followed by [3H]DA addition and measured after 20 mins by TopCount scintillation counting method relative to control. The format is subcellular. To be noted: Striatum, time 30.0 min.
Sequence of Synaptic vesicular amine transporter (Rattus norvegicus) (Q01827 whole entry): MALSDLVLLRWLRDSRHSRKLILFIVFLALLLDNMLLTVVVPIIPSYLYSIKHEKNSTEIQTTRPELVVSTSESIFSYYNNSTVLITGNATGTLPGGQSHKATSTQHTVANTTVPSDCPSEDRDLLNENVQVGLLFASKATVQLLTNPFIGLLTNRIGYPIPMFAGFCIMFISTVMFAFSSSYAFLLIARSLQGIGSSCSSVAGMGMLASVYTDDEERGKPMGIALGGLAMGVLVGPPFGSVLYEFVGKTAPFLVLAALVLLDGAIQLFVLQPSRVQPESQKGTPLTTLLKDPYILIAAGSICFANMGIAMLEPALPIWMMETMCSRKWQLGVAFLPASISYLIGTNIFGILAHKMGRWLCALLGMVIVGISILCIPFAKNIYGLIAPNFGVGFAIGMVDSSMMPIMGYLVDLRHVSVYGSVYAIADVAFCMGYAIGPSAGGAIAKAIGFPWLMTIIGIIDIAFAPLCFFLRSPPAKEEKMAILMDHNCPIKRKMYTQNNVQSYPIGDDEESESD
Series [21] can be described thus: Ratio of drug level in Sprague-Dawley rat brain to blood at 5 umol/kg, ig measured after 6 hrs by LC-MS/MS analysis. Type of series: ADME, tissue-based. To be noted: po, dose 5 µmol/kg.
Series [22] can be described thus: Metabolic stability in human liver microsomes assessed as parent compound remaining at 1 uM in the presence of NADPH measured after 60 mins by LC-MS/MS analysis. The format is ADME, Microsome. To be noted: read-out: Stability.
In series [23] the target is Cytochrome P450 2C19 (Homo sapiens, UniProt P33261). In words: Inhibition of CYP2C19 (unknown origin). Type of series: ADME.
Sequence of Cytochrome P450 2C19 (P33261 whole entry): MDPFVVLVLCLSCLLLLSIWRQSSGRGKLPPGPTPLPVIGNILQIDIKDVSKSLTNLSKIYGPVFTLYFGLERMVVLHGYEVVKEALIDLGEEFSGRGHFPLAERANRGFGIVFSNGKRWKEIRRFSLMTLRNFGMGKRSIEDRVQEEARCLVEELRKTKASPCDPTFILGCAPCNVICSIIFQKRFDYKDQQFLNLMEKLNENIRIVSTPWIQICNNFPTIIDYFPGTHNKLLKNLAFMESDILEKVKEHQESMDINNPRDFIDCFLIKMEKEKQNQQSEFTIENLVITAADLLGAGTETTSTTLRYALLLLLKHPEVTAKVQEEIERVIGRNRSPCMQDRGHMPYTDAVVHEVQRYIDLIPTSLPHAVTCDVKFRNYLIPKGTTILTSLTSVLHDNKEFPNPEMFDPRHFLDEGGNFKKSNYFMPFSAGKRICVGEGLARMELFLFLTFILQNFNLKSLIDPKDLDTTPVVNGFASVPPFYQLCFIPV
Series [24] is described as follows: Metabolic stability in mouse liver microsomes assessed as parent compound remaining at 1 uM in the presence of NADPH measured after 60 mins by LC-MS/MS analysis. Type of series: ADME, Microsome. To be noted: liver microsomes, read-out: Stability.

Take `COc1cc2c(cc1OCC(F)(F)F)CCN1CC(CC(C)C)C(O)CC21` (centres undefined): in [1], the half-life was 2.29 h. The IC50 in series [2] is > 100 µM; in series [3], > 100 µM; in series [4], > 100 µM; in series [8] it was > 100 µM; in series [15], 6.51 µM; in [23], > 100 µM. In addition, in [5], the Drug uptake came out at 458.2 nmol/kg. The compound further gave an apparent clearance CL/F in series [6] of 53.3 mL/min/kg. This compound also yielded an AUC(0-inf) in [7] of 3.47 µM·h. Also, the Tmax in series [9] was found to be 0.75 h. The Cmax in [10] was 1400 nM. The compound also yielded an inhibition in vivo at 15 µmol/kg in [11] of 93.7%. Also, the CLint scaled at 1 µM in series [12] amounted to 31.9 mL/min/kg; in [17], 8.6 mL/min/kg; in series [18], 238 mL/min/kg. Also, the Vd/F in series [13] was 10.8 L/kg. Moreover, the inhibition in [14] and in series [20] was 99.9% each time. In series [16], this compound gave an inhibition in vivo at 3 µmol/kg of 64.7%. Moreover, the values for the remaining at 1 h, 1 µM in series [19], in series [22] and in series [24] were 48.1%, 77.4% and 14.2%, respectively. In addition, the Kp at 6 h in series [21] was found to be 2.21.
